# Measured values published in PMC8778818, “Synthesis, Structural Characterization and Anticancer Activity of New 5-Trifluoromethyl-2-thioxo-thiazolo[4,5-d]pyrimidine Derivatives” (Pharmaceuticals, 2022).
# “Also recorded” adds a separate entry of the source.
# Experiments:
# MCF-7/WT = test: MTT cell viability assay, MCF-7/WT; assay type: cell-based; settings: Homo sapiens, MCF7, 72 h, mean ± SD
# How it was run: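 Monolayer cultures, 3 × 10^4 cells/well, 24 h attachment; compound 50–5000 µM, 72 h; MTT, A560; % of untreated control; three independent experiments, mean absorbance.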
# [1] = system: 60 human cancer cell lines; test: NCI-60 anticancer screen, full panel; assay type: cell-based; settings: 10^−5 M one dose
# CCRF-CEM = test: NCI-60 screen, Leukemia CCRF-CEM; assay type: cell-based, human; settings: 10^−5 M one dose
# A549/ATCC = test: NCI-60 screen, Non-Small Cell Lung Cancer A549/ATCC; assay type: cell-based, human; settings: 10^−5 M one dose
# HOP-92 = test: NCI-60 screen, Non-Small Cell Lung Cancer HOP-92; assay type: cell-based, human; settings: HOP-92, 10^−5 M one dose
# NCI-H226 = test: NCI-60 screen, Non-Small Cell Lung Cancer NCI-H226; assay type: cell-based, human; settings: NCI-H226, 10^−5 M one dose
# HCT-15 = test: NCI-60 screen, Colon Cancer HCT-15; assay type: cell-based; settings: HCT-15, 10^−5 M one dose
# KM12 = test: NCI-60 screen, Colon Cancer KM12; assay type: cell-based, human; settings: KM12, 10^−5 M one dose
# SW620 = test: NCI-60 screen, Colon Cancer SW620; assay type: cell-based, human; settings: SW620, 10^−5 M one dose
# SF-539 = test: NCI-60 screen, CNS Cancer SF-539; assay type: cell-based, human; settings: SF-539, 10^−5 M one dose
# LOX IMVI = test: NCI-60 screen, Melanoma LOX IMVI; assay type: cell-based, human; settings: 10^−5 M one dose
# IGROV1 = test: NCI-60 screen, Ovarian Cancer IGROV1; assay type: cell-based; settings: IGROV1, 10^−5 M one dose
# OVCAR-3 = test: NCI-60 screen, Ovarian Cancer OVCAR-3; assay type: cell-based, human; settings: OVCAR-3, 10^−5 M one dose
# OVCAR-4 = test: NCI-60 screen, Ovarian Cancer OVCAR-4; assay type: cell-based, human; settings: OVCAR-4, 10^−5 M one dose
# OVCAR-8 = test: NCI-60 screen, Ovarian Cancer OVCAR-8; assay type: cell-based, human; settings: OVCAR-8, 10^−5 M one dose
# NCI/ADR-RES = test: NCI-60 screen, Ovarian Cancer NCI/ADR-RES; assay type: cell-based, human; settings: 10^−5 M one dose
# CAKI-1 = test: NCI-60 screen, Renal Cancer CAKI-1; assay type: cell-based, human; settings: CAKI-1, 10^−5 M one dose
# DU-145 = test: NCI-60 screen, Prostate C. DU-145; assay type: cell-based; settings: DU-145, 10^−5 M one dose
# MCF7 = test: NCI-60 screen, Breast Cancer MCF7; assay type: cell-based, human; settings: MCF7, 10^−5 M one dose
# MDA-MB-231/ATCC = test: NCI-60 screen, Breast Cancer MDA-MB-231/ATCC; assay type: cell-based; settings: MDA-MB-231/ATCC, 10^−5 M one dose
# HS 578T = test: NCI-60 screen, Breast Cancer HS 578T; assay type: cell-based, human; settings: 10^−5 M one dose
smiles,measurement,setting,value
Fc1ccc(CNc2nc(C(F)(F)F)nc3c2sc(=S)n3-c2ccccc2)cc1 [Compound 4c],IC50,MCF-7/WT,568 ± 24.8 µM
same,activity in the one-dose assay (in words),[1],insufficient activity; also recorded: inactive
same,Mean Growth %,[1]; mean over the panel,105.13%
same,Growth of Cells (%),CCRF-CEM,102.97%
same,Growth of Cells (%),A549/ATCC,98.32%
same,Growth of Cells (%),HOP-92,106.96%
same,Growth of Cells (%),NCI-H226,112.41%
same,Growth of Cells (%),HCT-15,103.39%
same,Growth of Cells (%),KM12,113.23%
same,Growth of Cells (%),SW620,114.74%
same,Growth of Cells (%),SF-539,102.28%
same,Growth of Cells (%),LOX IMVI,109.59%
same,Growth of Cells (%),IGROV1,109.98%
same,Growth of Cells (%),OVCAR-3,111.62%
same,Growth of Cells (%),OVCAR-4,125.04%
same,Growth of Cells (%),OVCAR-8,98.68%
same,Growth of Cells (%),NCI/ADR-RES,114.00%
same,Growth of Cells (%),CAKI-1,94.38%
same,Growth of Cells (%),DU-145,122.63%
same,Growth of Cells (%),MCF7,98.77%
same,Growth of Cells (%),MDA-MB-231/ATCC,119.48%
same,Growth of Cells (%),HS 578T,125.43%
